What all share (assay): NCI tumour cell line growth inhibition, 48 h
For test [1], the system named is EKVX NSCLC.
The test system of test [2] is K-562 leukemia.
Test [3] concerns KM12 colon.
Test [4] deals with MDA-MB-231 breast.
Test [5] concerns NCI/ADR-RES ovarian.
For test [6], the system named is PC-3 prostate.
Test [7] relates to CAKI-1 renal.
Test [8] deals with SF-295 CNS.
Test [9] has as its system SK-OV-3 ovarian.
In test [10] the test system is UO-31 renal.

Values joined by “and” are separate entries in the source; they are usually repeats but may differ in a detail not shown here. Equal values may be shown once.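 Grown in 96-well plates, cells were treated for 48 hours with each compound at five concentrations. Insufficient inhibition: endpoint recorded as highest concentration tested. Here, GI50 denotes the concentration required for 50% inhibition of growth. TGI is the concentration that stops growth completely.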

Results on nine molecules are retold here after PubChem BioAssay (NCI).

In the case of `Cc1cc(N(CCCNc2ccnc3cc(Cl)ccc23)Cc2ccc3c(c2)OCO3)nc(N2CCOCC2)n1`, the GI50 in [1] was 0.299 µM; in test [2], 0.328 µM; in test [3], 0.34 µM; in test [4], 0.303 µM; in [5] it was 0.692 µM; in [6], 0.352 µM. The TGI in test [1] was over 100 µM; in test [2], 10 µM; in test [3], 25.7 µM; in test [4], 1.37 µM; in [5], 23 µM; in test [6] it was 29.2 µM.
Consider `O=c1[nH]c2ccc(O)cc2o1`, for which the TGI in test [7], in test [1], in test [2], in [3], in [4] and in [5] was over 100 µM each time. Besides, the TGI in [6], in [8], in [9] and in [10] was over 100 µM in each case.
With `COc1ccc(-c2nnc(N3CCN(C(=O)CN4CCN(c5ccccc5)CC4)CC3)nc2-c2ccc(OC)cc2)cc1`, the GI50 in test [7] is 6.23 µM; in [1], 4.91 µM; in test [2], 2.53 µM; in test [3] it was 3.67 µM; in [4], 13.4 µM; in [5] it was 5.15 µM. Besides, the GI50 in test [6] is 3.83 µM; in test [8] it was 5.83 µM; in test [9], 14.5 µM; in test [10], 1.91 µM. Besides, the TGI in [7], in test [1], in test [2], in test [3], in [4] and in test [5] was over 100 µM in each case. Further, the TGI is over 100 µM in [6], 47.7 µM in test [8], 70.7 µM in test [9] and over 100 µM in [10].
Regarding `C/C(=N\NC(=S)N1CCCCCC1)c1ccccn1`, the GI50 was under 0.0393 µM in test [7]; 0.053 µM in [1]; 0.0688 µM in test [3]; 0.147 µM in test [4]; 0.183 µM in test [6]; 0.0137 µM in test [8]. In test [10], the GI50 is 0.134 µM. Further, the TGI was 5.45 µM and 10.4 µM in [7]; 1.84 µM and 3.34 µM in [1]; 1.92 µM and 4.53 µM in test [2]; 0.517 µM and 5.16 µM in test [3]; 5.31 µM and 9.96 µM in test [4]; 3.32 µM in [5]. The TGI in [6] is 2.9 µM and 2.61 µM; in test [8], 2.3 µM; in test [9], 2.28 µM; in [10], 4.01 µM and 4.33 µM.
With `CCCCCCCN=C(N)c1ccc(N2CCN(c3ccc(C(N)=NCCCCCCC)cc3)CC2)cc1`, the GI50 in test [7] is 0.474 µM; in [1], 0.175 µM; in [2] it was 0.147 µM; in test [3], over 100 µM; in test [4] it was 0.165 µM; in test [5] it was 1.38 µM. In addition, the GI50 in test [6] is 0.268 µM; in test [8] it was 0.0628 µM; in [9] it was 0.735 µM; in [10], 0.781 µM. For the same molecule, the TGI in test [7] was 21.4 µM; in test [1], 2.94 µM; in [2], over 9.41 µM; in test [3], over 100 µM; in test [4] it was 0.703 µM; in [5] it was over 57.7 µM. Moreover, the TGI was over 20 µM in test [6], 0.28 µM in test [8], over 26.4 µM in test [9] and over 100 µM in test [10].
In the case of `CN(C)CCSc1cc(-c2ccccc2)c2ccccc2n1`, the TGI in test [7] was 30.9 µM; in test [1] it was 30.3 µM; in [2], 23.5 µM; in test [3], 29 µM; in test [4], 24 µM; in test [5] it was 31.5 µM. Further, the TGI in [6] was found to be 24.6 µM; in [8], 28 µM; in test [9] it was 15.9 µM; in test [10], 23 µM.
As to `CC(C)OC(=O)[C@H](C)NP(=O)(OC[C@H]1O[C@@H](n2ccc(=O)[nH]c2=O)[C@](C)(F)[C@@H]1O)Oc1ccccc1` (some centres not stated), the GI50 in test [1], in test [3], in test [4], in test [5], in [6] and in test [8] was over 100 µM each time. Besides, the GI50 in test [9] and in [10] was over 100 µM each time. The TGI in test [1], in test [3], in test [4], in [5], in [6] and in test [8] was over 100 µM in each case. In addition, the TGI in test [9] and in [10] was over 100 µM throughout.
Turning to `COC(=O)c1ccc(-c2c(C#N)[n+](=O)c3cc(Cl)c(Cl)cc3n2[O-])cc1`, the GI50 is 18.9 µM in test [7]; 21.7 µM in [1]; 5.54 µM in test [2]; 20.9 µM in test [3]; 14.4 µM in test [4]; 23.2 µM in test [5]. Also, the GI50 is 9.79 µM in test [6], 12.5 µM in [8] and 26.3 µM in test [10]. Also, the TGI in [7] amounted to 35.4 µM; in test [1] it was 47.8 µM; in test [2], 21.8 µM; in [3], 51.3 µM; in test [4], 33.5 µM; in [5] it was 75.6 µM. In addition, the results for the TGI in [6], in [8] and in test [10] were 27.9 µM, 33.7 µM and 67.3 µM, respectively.
For the molecule `CN(C)c1ncnc2c1ncn2CCn1cnc2c(N(C)C)ncnc21`, the TGI in test [7], in test [1], in test [3], in [4], in [5] and in test [6] was over 100 µM in each case. The TGI in test [8], in [9] and in [10] was over 100 µM each time.
